Reference: US11357850B2, “Methods for treating breast cancer using INOS-inhibitory compositions” (The Methodist Hospital, priority 2014, dated 2022)

How the values were obtained:
MDA-MB-231 [1] = assay: Cell migration, wound healing assay; format: cell-based, human; settings: 96 hrs treatment, wound healing 12 hrs
Method: (§1) FIG. 18A and FIG. 18B show the migration of MDA-MB-231 and SUM159 cells was assessed by “wound healing” assay. Briefly, 3×10^5 cells were plated in a 6-well plate until confluence in growth medium. […] A “wound” was then created in the cell monolayer. Images were taken at 0 and 12 hrs. Wound-healing capacity was determined with the software Image J. Data were replicated in three independent experiments. Results were normalized to vehicle;
(§2) Cell migration capacity. Cell migration was determined with a “wound healing assay.” Briefly, 3×10^5 cells/well were grown in 6-well plates until confluence. […] To avoid an impact on cell proliferation, low serum medium was changed by regular growth medium in presence of inhibitors for 24 hrs (96 hrs total). A “wound” was then created in the cell monolayer with a 100-4, pipette tip. Images were taken at 0 hrs, and cells were allowed to heal the wound for 12 hrs. Wound-healing capacity was determined with the software Image J. Data were replicated in three independent experiments.

SUM159 [2] = assay: Cell migration, wound healing assay; format: cell-based, human; settings: 96 hrs treatment, wound healing 12 hrs
Method: as §1, §2

MDA-MB-231 [3] = assay: Western blot / RT-PCR of EMT, hypoxia, ER stress and TGFβ markers; format: cell-based, human
Method: (§3) Protein levels of iNOS and EMT-inducing factors were determined by Western blot with antibodies against: iNOS (N-20) and Twist1 (L-21) (Santa Cruz Biotechnology), Snail (C15D3), Slug (C19G7) and TCF8/Zeb1 (D80D3) (Cell Signaling) (1:1000 dilution). β-actin (Cell Signaling; 1:2000) was used as loading control;
(§4) Western Blot. […] Cells were resuspended in 1× lysis buffer (Cell Signaling Technology, Inc.) and 1× protease/phosphatase inhibitor cocktail (Thermo Scientific). Samples (30 μg protein) were boiled in 4×LDS sample buffer (Thermo Scientific) containing […] (Sigma-Aldrich) and subjected to SDS-PAGE electrophoresis in 4-20% polyacrylamide gels (Bio-Rad, Hercules, Calif., USA). Proteins were transferred onto nitrocellulose membranes (Bio-Rad) and non-specific binding was avoided incubating with 5% non-fat dry milk in 1×Tris-buffered saline (TBS) for 1 hr. Membranes were incubated overnight at 4° C. with primary antibodies (1:1,000 dilution; anti-β-Actin, 1:2,000 dilution). After washing and incubation with the appropriate secondary antibodies for 1 hr (1:2,000 dilution), membranes were washed and incubated with enhanced chemiluminescence substrate. Protein bands were developed in autoradiography films (Denville Scientific, Inc., Holliston, Mass., USA).
RT-PCR Analysis of Spliced XBP1. […] The PCR amplification (50 ng cDNA) was done with […] Taq DNA polymerase (native, 5 U/μL), 0.2 mM dNTP, 1.5 mM MgCl2 (50 mM) and 0.5 μM of each primer.

SUM159 [4] = assay: Western blot of EMT, hypoxia, ER stress and TGFβ markers; format: cell-based, human
Method: as §3, §4

MCF10A = assay: Western blot of PERK/eIF2α/ATF4/ATF3 axis with recombinant TGFβ1; format: cell-based; settings: 1400 W 4 mM co-treatment with recombinant TGFβ1 for 24 hrs
Source text: FIG. 3A, FIG. 3B, FIG. 3C, FIG. 3D, FIG. 3E, FIG. 3F, FIG. 3G, FIG. 311, FIG. 3I, and FIG. 3J show iNOS knockdown impairs tumorigenicity and EMT by a dual impact on HIF1α and endoplasmic reticulum (ER) stress/TGFβ/AFT4/ATF3 crosstalk. Proliferation (FIG. 3A), migration (FIG. 3B), and self-renewal capacity (primary and secondary mammospheres) (FIG. 3C) in MDA-MB-231 cells transfected with two different NOS2-directed shRNAs (shRNA1, shRNA2) compared with empty vector (shRNA-EV). […] Selective iNOS inhibition reduced hypoxia (HIF1α), ER stress markers (IRE1α, ATF4) (FIG. 3F), phospho-Smad2/3, Smad2/3 and mature TGFβ protein levels in MDA-MB-231 and SUM159 cells (FIG. 3G). FIG. 3H: Recombinant TGFβ1 (10 ng/mL for 24 hrs) activates the PERK/eIF2α/ATF4/ATF3 axis in MCF10A. […] FIG. 3J: Selective iNOS inhibition is postulated to impair EMT and tumor cell migration by an impact on HIF1α, ER stress (IRE1α/XBP1) and the crosstalk between ATF4, ATF3 and TGFβ. Results were normalized to empty vector. Data are presented as mean±SEM. ****p<0.0001, ***p<0.001, **p<0.01. One-way ANOVA and Bonferroni's post-hoc test;
Western Blot. Cells were cultured at a density of 2.5×10^5 cells/well in 6-well plates with or without iNOS inhibitors for 96 hrs. Cells were resuspended in 1× lysis buffer (Cell Signaling Technology, Inc.) and 1× protease/phosphatase inhibitor cocktail (Thermo Scientific). […]

HRT-18 cells = settings: daily treatment with 500 μM; cited from earlier work
[5] = tested on: adenoid cystic carcinoma of the oral cavity; settings: mouse, in vivo; cited from earlier work
[6] = millimolar and micromolar concentrations, 96 hrs

**Q.** Which results are given for `CC(=N)NCc1cccc(CN)c1` [1400 W, N-[[3-(aminomethyl)phenyl]methyl]-ethanimidamide]?
**A.** migration (MDA-MB-231 [1]; micromolar range): marked dose-dependent decrease in migration; migration (MDA-MB-231 [1]; millimolar range): marked dose-dependent decrease in migration; migration (SUM159 [2]; micromolar range): marked dose-dependent decrease in migration; migration (SUM159 [2]; millimolar range): marked dose-dependent decrease in migration; ER stress markers IRE1α/splicedXBP1 and ATF4 (MDA-MB-231 [3]; 96 hrs): dose-dependent decrease; hypoxia (HIF1α) (MDA-MB-231 [3]; 96 hrs): dose-dependent decrease; TGFβ signaling (phospho-Smad2/3, Smad2/3 and mature TGFβ) (MDA-MB-231 [3]; absence and presence of recombinant TGFβ1 (10 ng/mL for 72 hrs)): inhibit TGFβ signaling; protein levels of the EMT transcription factors Snail, Slug, and Twist1 (MDA-MB-231 [3]; [6]): reduction in protein levels; Zeb1 protein levels (MDA-MB-231 [3]; millimolar concentrations): decreased; hypoxia (HIF1α) (SUM159 [4]; 96 hrs): dose-dependent decrease; TGFβ signaling (phospho-Smad2/3, Smad2/3 and mature TGFβ) (SUM159 [4]; absence of recombinant TGFβ1): inhibit TGFβ signaling; protein levels of the EMT transcription factors Snail, Slug, and Twist1 (SUM159 [4]; [6]): reduction in protein levels; Zeb1 protein levels (SUM159 [4]; millimolar concentrations): decreased; ER stress markers IRE1α and ATF4 (SUM159 [4]; splicedXBP1 was not detected in SUM159 cells): dose-dependent decrease; stimulation of ATF4 and ATF3 protein levels by TGFβ1 (MCF10A): inhibit the stimulation of ATF4 and ATF3 protein levels; invasiveness (HRT-18 cells): substantially decreased; spontaneous lung metastasis [5]: markedly inhibit spontaneous lung metastasis
